Drawing on US12492193B2, “Pyrazole derivatives for the treatment of cystic fibrosis” (Fondazione Istituto Italiano Di Tecnologia, priority 2017, dated 2025), this text covers EC50 for 19 molecules.

This assay has as its target T1, mutant CFTR (Homo sapiens, UniProt P13569, DEL508-508).
T1 construct: expressed in transfected cells
The experiment in a line: Fluorescence (HS-YFP) assay for CFTR activity, corrector assay. In kind it is cell-based. To be noted: CFBE41o- and FRT cells with stable expression of mutant CFTR, 24 h compound treatment. The method, boiled down:
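CFBE41o- or FRT cells stably expressing mutant CFTR and HS-YFP were exposed to compounds for 24 h (corrector mode), then stimulated 30 min at 37° C with forskolin (20 μM) plus genistein (50 μM). YFP quenching after 100 mM iodide injection; initial slope from exponential fit of final 10 s; EC50 reported.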

T1 sequence (P13569 with tags, fused parts or gaps DEL508-508): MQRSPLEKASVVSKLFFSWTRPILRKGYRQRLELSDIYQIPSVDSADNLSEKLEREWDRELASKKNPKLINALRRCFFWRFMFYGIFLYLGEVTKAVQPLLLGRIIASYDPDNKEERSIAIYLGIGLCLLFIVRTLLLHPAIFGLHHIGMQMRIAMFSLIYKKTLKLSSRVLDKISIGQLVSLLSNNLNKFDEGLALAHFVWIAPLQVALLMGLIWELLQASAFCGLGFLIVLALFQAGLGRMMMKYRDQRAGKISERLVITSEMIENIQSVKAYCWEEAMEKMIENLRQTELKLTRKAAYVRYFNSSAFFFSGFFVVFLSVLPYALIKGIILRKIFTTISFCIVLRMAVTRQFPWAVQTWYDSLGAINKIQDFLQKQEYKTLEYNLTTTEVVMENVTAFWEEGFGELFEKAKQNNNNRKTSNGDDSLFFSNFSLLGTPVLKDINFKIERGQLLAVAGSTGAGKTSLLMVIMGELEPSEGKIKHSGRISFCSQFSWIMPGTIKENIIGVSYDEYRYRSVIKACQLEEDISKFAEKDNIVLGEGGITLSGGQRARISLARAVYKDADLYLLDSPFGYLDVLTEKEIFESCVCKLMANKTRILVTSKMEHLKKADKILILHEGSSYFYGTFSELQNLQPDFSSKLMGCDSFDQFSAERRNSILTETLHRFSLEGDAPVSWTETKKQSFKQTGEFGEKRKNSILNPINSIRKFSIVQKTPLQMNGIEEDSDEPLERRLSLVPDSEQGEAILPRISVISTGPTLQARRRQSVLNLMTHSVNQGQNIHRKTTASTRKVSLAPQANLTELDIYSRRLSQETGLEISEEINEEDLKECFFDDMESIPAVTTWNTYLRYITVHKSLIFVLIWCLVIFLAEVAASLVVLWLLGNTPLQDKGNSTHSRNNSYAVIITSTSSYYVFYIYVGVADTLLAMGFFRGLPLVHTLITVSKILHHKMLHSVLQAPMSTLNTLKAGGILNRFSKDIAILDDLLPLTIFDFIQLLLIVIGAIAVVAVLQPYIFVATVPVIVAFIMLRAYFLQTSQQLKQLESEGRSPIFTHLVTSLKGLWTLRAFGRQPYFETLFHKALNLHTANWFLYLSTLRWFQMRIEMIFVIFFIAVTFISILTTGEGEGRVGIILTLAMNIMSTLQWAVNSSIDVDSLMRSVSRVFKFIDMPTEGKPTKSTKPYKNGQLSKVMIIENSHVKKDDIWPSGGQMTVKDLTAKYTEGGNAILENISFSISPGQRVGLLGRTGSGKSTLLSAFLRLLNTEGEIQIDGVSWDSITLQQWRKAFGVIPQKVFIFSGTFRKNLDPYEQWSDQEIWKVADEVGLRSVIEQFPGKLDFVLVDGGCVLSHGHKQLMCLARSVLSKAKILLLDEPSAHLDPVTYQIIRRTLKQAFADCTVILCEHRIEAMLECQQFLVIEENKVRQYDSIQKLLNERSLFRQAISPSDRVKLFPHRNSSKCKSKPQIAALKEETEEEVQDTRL

What is called EC50 is the concentration that produces a half-maximal response. `CN(C(=O)c1cccc(-n2nc(C(F)(F)F)cc2COc2ccc(C(=O)O)cc2)c1)c1ccc2c(c1)OC(F)(F)O2` [compound 218, 4-[[2-[3-[(2,2-difluoro-1,3-benzodioxol-5-yl)-methyl-carbamoyl]phenyl]-5-(trifluoromethyl)pyrazol-3-yl]methoxy]benzoic acid]: the EC50 is below 1000 nM.
For the molecule `CN(C(=O)c1cccc(-n2nc(C(F)(F)F)c(C#N)c2COc2ccc(C(=O)O)cc2)c1)c1ccc2c(c1)OC(F)(F)O2` [compound 224, 4-[[4-Cyano-2-[3-[(2,2-difluoro-1,3-benzodioxol-5-yl)-methyl-carbamoyl]phenyl]-5-(trifluoromethyl)pyrazol-3-yl]methoxy]benzoic acid], the half-maximal effective concentration (EC50) was below 1000 nM.
Regarding `CN(C(=O)c1cccc(-n2nc(C(F)(F)F)c(Cl)c2COc2cnc(C(=O)O)cn2)c1)c1ccc2c(c1)OC(F)(F)O2` [compound 226, 5-[[4-Chloro-2-[3-[(2,2-difluoro-1,3-benzodioxol-5-yl)-methyl-carbamoyl]phenyl]-5-(trifluoromethyl)pyrazol-3-yl]methoxy]pyrazine-2-carboxylic acid], the EC50 was below 1000 nM.
For `CN(C(=O)c1cccc(-n2nc(C(F)(F)F)c(Cl)c2CO[C@H]2CC[C@H](C(=O)O)CC2)c1)c1ccc2c(c1)OC(F)(F)O2` [compound 228, Trans-4-[[4-chloro-2-[3-[(2,2-difluoro-1,3-benzodioxol-5-yl)-methyl-carbamoyl]phenyl]-5-(trifluoromethyl)pyrazol-3-yl]methoxy]cyclohexanecarboxylic acid] the value was below 1000 nM; for `Cc1nc2ccc(N(C)C(=O)c3cccc(-n4nc(C(F)(F)F)c(Cl)c4COc4ccc(C(=O)O)cc4)c3)cc2o1` [compound 233, 4-[[4-Chloro-2-[3-[methyl-(2-methyl-1,3-benzoxazol-6-yl)carbamoyl]phenyl]-5-(trifluoromethyl)pyrazol-3-yl]methoxy]benzoic acid], below 1000 nM; for `Cc1nc2cc(F)c(N(C)C(=O)c3cccc(-n4nc(C(F)(F)F)c(Cl)c4COc4ccc(C(=O)O)cc4)c3)cc2o1` [compound 234, 4-[[4-Chloro-2-[3-[(5-fluoro-2-methyl-1,3-benzoxazol-6-yl)-methyl-carbamoyl]phenyl]-5-(trifluoromethyl)pyrazol-3-yl]methoxy]benzoic acid], below 1000 nM.
The value for `Cc1nc2ccc(N(C)C(=O)c3cccc(-n4nc(C(F)(F)F)c(Cl)c4COc4ccc(C(=O)O)cc4)c3)cn2n1` [compound 236, 4-[[4-Chloro-2-[3-[methyl-(2-methyl-[1,2,4]triazolo[1,5-a]pyridin-6-yl)carbamoyl]phenyl]-5-(trifluoromethyl)pyrazol-3-yl]methoxy]benzoic acid] was below 1000 nM; that for `Cc1cc2ncc(N(C)C(=O)c3cccc(-n4nc(C(F)(F)F)c(Cl)c4COc4ccc(C(=O)O)cc4)c3)cn2n1` [compound 238, 4-[[4-Chloro-2-[3-[methyl-(2-methylpyrazolo[1,5-a]pyrimidin-6-yl)carbamoyl]phenyl]-5-(trifluoromethyl)pyrazol-3-yl]methoxy]benzoic acid] was 1000 to 2000 nM; that for `Cc1cc2cc(N(C)C(=O)c3cccc(-n4nc(C(F)(F)F)c(Cl)c4COc4ccc(C(=O)O)cc4)c3)ccn2n1` [compound 239, 4-[[4-Chloro-2-[3-[methyl-(2-methylpyrazolo[1,5-a]pyridin-5-yl)carbamoyl]phenyl]-5-(trifluoromethyl)pyrazol-3-yl]methoxy]benzoic acid] was below 1000 nM.
Take `Cc1noc2cc(N(C)C(=O)c3cccc(-n4nc(C(F)(F)F)c(Cl)c4COc4ccc(C(=O)O)cc4)c3)ccc12` [compound 245, 4-[[4-Chloro-2-[3-[methyl-(3-methyl-1,2-benzoxazol-6-yl)carbamoyl]phenyl]-5-(trifluoromethyl)pyrazol-3-yl]methoxy]benzoic acid]: the EC50 was below 1000 nM.
Regarding `COC(=O)C12CC(COc3cc(C(F)(F)F)nn3-c3cccc(C(=O)N(C)c4ccc5c(c4)OC(F)(F)O5)c3)(C1)C2` [compound 254, Methyl 3-[[2-[3-[(2,2-difluoro-1,3-benzodioxol-5-yl)-methyl-carbamoyl]phenyl]-5-(trifluoromethyl)pyrazol-3-yl]oxymethyl]bicyclo[1.1.1]pentane-1-carboxylate], the EC50 is below 1000 nM.
`CN(C(=O)c1cccc(-n2nc(C(F)(F)F)cc2OCC23CC(C(=O)O)(C2)C3)c1)c1ccc2c(c1)OC(F)(F)O2` [compound 255, 3-[[2-[3-[(2,2-Difluoro-1,3-benzodioxol-5-yl)-methyl-carbamoyl]phenyl]-5-(trifluoromethyl)pyrazol-3-yl]oxymethyl]bicyclo[1.1.1]pentane-1-carboxylic acid]: the 50% effective concentration (EC50) is below 1000 nM.
As to `Cc1cn2cc(N(C)C(=O)c3cccc(-n4nc(C(F)(F)F)c(Cl)c4COc4ccc(C(=O)O)cc4)c3)ccc2n1` [compound 256, 4-[[4-Chloro-2-[3-[methyl-(2-methylimidazo[1,2-a]pyridin-6-yl)carbamoyl]phenyl]-5-(trifluoromethyl)pyrazol-3-yl]methoxy]benzoic acid], the concentration giving a half-maximal response (EC50) was below 1000 nM.
The value for `CN(C(=O)c1cccc(-n2nc(C(F)(F)F)c(Cl)c2COC2CC(C(=O)O)C2)c1)c1ccc2c(c1)OC(F)(F)O2` (stereo not shown) [compound 257, 3-[[4-Chloro-2-[3-[(2,2-difluoro-1,3-benzodioxol-5-yl)-methyl-carbamoyl]phenyl]-5-(trifluoromethyl)pyrazol-3-yl]methoxy]cyclobutanecarboxylic acid] was below 1000 nM; that for `CN(C(=O)c1cccc(-n2nc(C(F)(F)F)c(Cl)c2OCC23CC(C(=O)O)(C2)C3)c1)c1ccc2c(c1)OC(F)(F)O2` [compound 258, 3-[[4-Chloro-2-[3-[(2,2-difluoro-1,3-benzodioxol-5-yl)-methyl-carbamoyl]phenyl]-5-(trifluoromethyl)pyrazol-3-yl]oxymethyl]bicyclo[1.1.1]pentane-1-carboxylic acid] was below 1000 nM; that for `CN(C(=O)c1cccc(-n2nc(C(F)(F)F)c(C#N)c2COc2ccc(C(=O)OC(C)(C)C)cc2)c1)c1ccc2c(c1)OC(F)(F)O2` [compound 259, Tert-butyl 4-[[4-cyano-2-[3-[(2,2-difluoro-1,3-benzodioxol-5-yl)-methyl-carbamoyl]phenyl]-5-(trifluoromethyl)pyrazol-3-yl]methoxy]benzoate] was below 1000 nM.
The value for `CCOC(=O)CCC(=O)N1CCC(Oc2cc(C(F)(F)F)nn2-c2cccc(C(=O)N(C)c3ccc4c(c3)OC(F)(F)O4)c2)CC1` [compound 260, Ethyl 4-[4-[2-[3-[(2,2-difluoro-1,3-benzodioxol-5-yl)-methyl-carbamoyl]phenyl]-5-(trifluoromethyl)pyrazol-3-yl]oxy-1-piperidyl]-4-oxo-butanoate] was below 1000 nM; that for `Cc1nc2ncc(N(C)C(=O)c3cccc(-n4nc(C(F)(F)F)c(Cl)c4C)c3)cc2o1` [compound 261, 3-[4-Chloro-5-methyl-3-(trifluoromethyl)pyrazol-1-yl]-N-methyl-N-(2-methyloxazolo[4,5-b]pyridin-6-yl)benzamide] was 1000 to 2000 nM.
Regarding `CN(C(=O)c1cccc(-n2nc(C(F)(F)F)cc2OCc2ccc(C(=O)O)cc2)c1)c1ccc2c(c1)OCC2` [compound 262, 4-[[2-[3-[2,3-Dihydrobenzofuran-6-yl(methyl)carbamoyl]phenyl]-5-(trifluoromethyl)pyrazol-3-yl]oxymethyl]benzoic acid], the half-maximal effective concentration (EC50) was below 1000 nM.
